Source: patent publication US11964929B2, “Application of glutamine derivative in preparation of animal feed additive” (WISORIG TE[…]. LIMITED, priority 2018, dated 2024)

Assays:
[1] = test system: Duroc×Landrace×Yorkshire cross-bred bacon-type pigs; assay: Effect of the glutamine derivatives on the production performance of hogs (piglets), 28-day feeding; type: in vivo; details: 65-day-old pigs, basal ration + 800 ppm, 28 days; for FCR (feed conversion ratio): ADFI/ADG
Text: 480 65-day-old Duroc×Landrace×Yorkshire cross-bred bacon-type pigs with similar body weight, were randomly divided into 16 groups, with 3 replications per group and 10 pigs (half of male and female) per replication. The pig pen and tools were sterilized before the experiment. […] The experiment lasted for 28 days.

yellow broilers = details: 1-day-old yellow broilers, basal ration + 750 ppm, 20 days; for FCR (feed conversion ratio): ADFI/ADG
Description: The experiment was conducted with single-factor randomized design. 720 1-day-old yellow broilers with a similar average body weight of 50 g, was randomly divided into 16 groups, each group consisting of 3 replicates and equal numbers of males and females, and each replicate consisting of 15 yellow broilers. The chicken house and tools were sterilized before the experiment. During the experiment, the broilers were kept in separate regions in the same chicken house under the same feeding and management conditions. Basal ration mainly consisted of corn and soybean meal. During the entire process, each treatment group was not given other antioxidants or growth promoters. […] The experiment lasted for 20 days. The broilers were given ad libitum access to food and water, and feeds were provided twice every day. At the day when the broilers were 21-day old (withdrawing feed for 12 hours, without withdrawing water), taking each replicate as one unit, body weights of the broilers were measured for calculating average daily feed intake (ADFI, g/d per broiler), average daily weigh gain (ADG, g/d per broiler), and feed conversion ratio (FCR). Feed conversion ratio (FCR)=Average daily feed intake/Average daily weight gain

Grass carps = details: basal ration + 500 ppm, 8 weeks; for Feed coefficient: 580/(final−initial weight); for Weight gain rate: (final−initial)/initial×100; for Average final weight: restricted feeding
Description: Grass carps were used in this experiment, which is conducted in an aquaculture region in the Guangzhou Insighter experiment yard. Healthy grass carps with the same size were reared in large netcages for 4 weeks before the experiment. The grass carps were kept in small floating netcages during the experiment. The small netcages and netcages for acclimatization were both placed in a 3500 m^2 pond in the experiment yard. […] In the experiment, 520 grass carps, which had been starved for 1 day, were randomly divided into 13 groups, each group consisting of 4 replicates, and each replicate consisting of 10 grass carps. The grass carps were weighed, taking each replicate as a whole. Then they were randomly released to 52 netcages in which they were fed with different feeds. […] Feed restriction had been adopted during the experiment, and the feeding amount was adjusted once a week. The treatment and control groups were fed twice (7:30 and 15:30) every day, with their feeding levels (based on initial body weights) being identical to be a total amount of 580 g. The experiment lasted for 8 weeks.
Calculation: Weight gain rate (%)=(Average final weight−Average initial weight)/Average initial weight×100 Feed coefficient=580/(Average final weight−Average initial weight)

O=C(NC(CCC(=O)N1CCCCC1)C(=O)O)c1ccccc1 (stereo not drawn) [Compound 5]
ADFI (average daily feed intake) [1]: 1633 g/d per piglet
ADG (average daily weight gain) [1]: 651 g/d per piglet
FCR (feed conversion ratio) [1]: 2.510
ADFI (average daily feed intake) (yellow broilers): 30.9 g/d per broiler
ADG (average daily weight gain) (yellow broilers): 13.7 g/d per broiler
FCR (feed conversion ratio) (yellow broilers): 2.26
Feed coefficient (Grass carps): 1.80
Weight gain rate (Grass carps): 71.27%
Average final weight (Grass carps): 678 g

CCNC(=O)CCC(NC(=O)c1ccccc1)C(=O)OCC (stereo not drawn) [Compound 6]
ADFI (average daily feed intake) [1]: 1615 g/d per piglet
ADG (average daily weight gain) [1]: 646 g/d per piglet
FCR (feed conversion ratio) [1]: 2.499
ADFI (average daily feed intake) (yellow broilers): 31.2 g/d per broiler
ADG (average daily weight gain) (yellow broilers): 14.2 g/d per broiler
FCR (feed conversion ratio) (yellow broilers): 2.20
Feed coefficient (Grass carps): 1.77
Weight gain rate (Grass carps): 72.84%
Average final weight (Grass carps): 681 g

CCNC(=O)CCC(NC(=O)c1ccccc1)C(=O)[O-].CCNC(=O)CCC(NC(=O)c1ccccc1)C(=O)[O-].[Ca+2] (stereo not drawn) [Compound 9]
ADFI (average daily feed intake) [1]: 1636 g/d per piglet
ADG (average daily weight gain) [1]: 652 g/d per piglet
FCR (feed conversion ratio) [1]: 2.511
ADFI (average daily feed intake) (yellow broilers): 32.5 g/d per broiler
ADG (average daily weight gain) (yellow broilers): 14.8 g/d per broiler
FCR (feed conversion ratio) (yellow broilers): 2.20

CCNC(=O)CCC(NC(=O)c1ccccc1)C(=O)[O-].CCNC(=O)CCC(NC(=O)c1ccccc1)C(=O)[O-].[Zn+2] (stereo not drawn) [Compound 7]
ADFI (average daily feed intake) [1]: 1674 g/d per piglet
ADG (average daily weight gain) [1]: 672 g/d per piglet
FCR (feed conversion ratio) [1]: 2.491
ADFI (average daily feed intake) (yellow broilers): 31.7 g/d per broiler
ADG (average daily weight gain) (yellow broilers): 14.5 g/d per broiler
FCR (feed conversion ratio) (yellow broilers): 2.18

CCNC(=O)CCC(NC(=O)c1ccc(O)cc1)C(=O)O (stereo not drawn) [Compound 12]
ADFI (average daily feed intake) [1]: 1599 g/d per piglet
ADG (average daily weight gain) [1]: 633 g/d per piglet
FCR (feed conversion ratio) [1]: 2.528
ADFI (average daily feed intake) (yellow broilers): 31.6 g/d per broiler
ADG (average daily weight gain) (yellow broilers): 14.0 g/d per broiler
FCR (feed conversion ratio) (yellow broilers): 2.26
Feed coefficient (Grass carps): 1.79
Weight gain rate (Grass carps): 69.56%
Average final weight (Grass carps): 692 g

CCNC(=O)CCC(NC(=O)c1ccccc1)C(=O)[O-].CCNC(=O)CCC(NC(=O)c1ccccc1)C(=O)[O-].[Cu+2] (stereo not drawn) [Compound 8]
ADFI (average daily feed intake) [1]: 1670 g/d per piglet
ADG (average daily weight gain) [1]: 671 g/d per piglet
FCR (feed conversion ratio) [1]: 2.488
ADFI (average daily feed intake) (yellow broilers): 30.6 g/d per broiler
ADG (average daily weight gain) (yellow broilers): 14.2 g/d per broiler
FCR (feed conversion ratio) (yellow broilers): 2.16

CCCCCCCCCC(=O)NC(CCC(=O)NCC)C(=O)O (stereo not drawn) [Compound 14]
ADFI (average daily feed intake) [1]: 1582 g/d per piglet
ADG (average daily weight gain) [1]: 621 g/d per piglet
FCR (feed conversion ratio) [1]: 2.548
ADFI (average daily feed intake) (yellow broilers): 31.8 g/d per broiler
ADG (average daily weight gain) (yellow broilers): 14.0 g/d per broiler
FCR (feed conversion ratio) (yellow broilers): 2.27
Feed coefficient (Grass carps): 1.81
Weight gain rate (Grass carps): 70.70%
Average final weight (Grass carps): 678 g

CCNC(=O)CCC(NC(=O)c1ccccc1)C(=O)O (stereo not drawn) [Compound 1]
ADFI (average daily feed intake) [1]: 1657 g/d per piglet
ADG (average daily weight gain) [1]: 661 g/d per piglet
FCR (feed conversion ratio) [1]: 2.506
ADFI (average daily feed intake) (yellow broilers): 32.8 g/d per broiler
ADG (average daily weight gain) (yellow broilers): 14.8 g/d per broiler
FCR (feed conversion ratio) (yellow broilers): 2.22
Feed coefficient (Grass carps): 1.79
Weight gain rate (Grass carps): 72.41%
Average final weight (Grass carps): 678 g

CCCCNC(=O)CCC(NC(=O)c1ccccc1)C(=O)O (stereo not drawn) [Compound 2]
ADFI (average daily feed intake) [1]: 1648 g/d per piglet
ADG (average daily weight gain) [1]: 651 g/d per piglet
FCR (feed conversion ratio) [1]: 2.531
ADFI (average daily feed intake) (yellow broilers): 31.5 g/d per broiler
ADG (average daily weight gain) (yellow broilers): 14.1 g/d per broiler
FCR (feed conversion ratio) (yellow broilers): 2.23
Feed coefficient (Grass carps): 1.78
Weight gain rate (Grass carps): 70.47%
Average final weight (Grass carps): 690 g

CCCC(=O)NC(CCC(=O)NCC)C(=O)O (stereo not drawn) [Compound 13]
ADFI (average daily feed intake) [1]: 1609 g/d per piglet
ADG (average daily weight gain) [1]: 627 g/d per piglet
FCR (feed conversion ratio) [1]: 2.566
ADFI (average daily feed intake) (yellow broilers): 31.3 g/d per broiler
ADG (average daily weight gain) (yellow broilers): 13.7 g/d per broiler
FCR (feed conversion ratio) (yellow broilers): 2.28
Feed coefficient (Grass carps): 1.83
Weight gain rate (Grass carps): 70.42%
Average final weight (Grass carps): 687 g

CCNC(=O)CCC(NC(=O)c1ccc(C)cc1)C(=O)O (stereo not drawn) [Compound 11]
ADFI (average daily feed intake) [1]: 1592 g/d per piglet
ADG (average daily weight gain) [1]: 634 g/d per piglet
FCR (feed conversion ratio) [1]: 2.512
ADFI (average daily feed intake) (yellow broilers): 30.8 g/d per broiler
ADG (average daily weight gain) (yellow broilers): 13.8 g/d per broiler
FCR (feed conversion ratio) (yellow broilers): 2.24
Feed coefficient (Grass carps): 1.80
Weight gain rate (Grass carps): 70.73%
Average final weight (Grass carps): 681 g

CCNC(=O)CCC(NC(=O)c1ccc(Cl)cc1)C(=O)O (stereo not drawn) [Compound 10]
ADFI (average daily feed intake) [1]: 1607 g/d per piglet
ADG (average daily weight gain) [1]: 657 g/d per piglet
FCR (feed conversion ratio) [1]: 2.508
ADFI (average daily feed intake) (yellow broilers): 32.2 g/d per broiler
ADG (average daily weight gain) (yellow broilers): 14.5 g/d per broiler
FCR (feed conversion ratio) (yellow broilers): 2.22
Feed coefficient (Grass carps): 1.81
Weight gain rate (Grass carps): 72.34%
Average final weight (Grass carps): 669 g

CCCCCCCCCCCCCC(=O)NC(CCC(=O)NCC)C(=O)O (stereo not drawn) [Compound 15]
ADFI (average daily feed intake) [1]: 1670 g/d per piglet
ADG (average daily weight gain) [1]: 650 g/d per piglet
FCR (feed conversion ratio) [1]: 2.571
ADFI (average daily feed intake) (yellow broilers): 32.4 g/d per broiler
ADG (average daily weight gain) (yellow broilers): 14.6 g/d per broiler
FCR (feed conversion ratio) (yellow broilers): 2.22
Feed coefficient (Grass carps): 1.80
Weight gain rate (Grass carps): 70.73%
Average final weight (Grass carps): 681 g
